Positions of bridges follow the written chain, without caps; N, C: chain ends. Residues, ends and D or L forms follow the SMILES beside them.
Legend:
[1] = Plasma amylin concentration after subcutaneous rat amylin (immuno-enzymometric assay); type: in vivo; details: sc, 1 μg, Peak plasma amylin concentration, 1 μg s.c., 20 min
Method: The plasma from 250 μL samples collected at 10 min intervals was separated and frozen at −20° C. for analysis by a 2-site immuno-enzymometric assay developed in-house.
To perform the immunoassay, black microtiter plates (Dynatech, Chantilly, Va.) were coated with the antibody F024-4.4 [Phelps JL, Blase E, Koda JE, unpublished] by overnight incubation at 4° C. with 20 μg antibody per mL in 50 mM carbonate at pH 9.6. Plates were washed with 0.05 M Tris/0.15 M sodium chloride/0.02% sodium azide/0.1% Tween 20 (TBS/Tween), and blocked with 1.0% nonfat dry milk powder in the same carbonate buffer for one hour at room temperature. Samples were thawed on ice, and diluted in 4% BSA/200 mg/dl bovine cholesterol supertrate (Miles Pentex reagents, Miles Laboratories, Kankakee, Ill.) if necessary. Samples or standards were added to the coated and blocked plates and incubated for one hours at room temperature. After washing, the F025-27 detection antibody conjugated to alkaline phosphatase was added. […] Bound enzyme was detected by incubation of the plates with the fluorescent substrate 4-methylumbelliferyl phosphate at 50 ug/ml in 1M diethanolamine/0.5 mM MgCl, pH 9.8 for 40 minutes at room temperature. The fluorescent signal was measured with a Dynatech Microfluor plate reader, and data analyzed on Multicalc software (Wallac, Gaithersburg, Md.). […]

[2] = Oral glucose tolerance test in dogs during amylin infusion (Example 1); type: in vivo, dog
Method: Mongrel dogs (9 males, 12-17 kg wt. range) were used for this study. All animals were fasted overnight prior to each study. Each animal served as its own control for all protocols. Animals were equilibrated for 30-60 minutes prior to the start of each protocol.
25% glucose (1 gm/kg) was administered by mouth at t=0 minutes. […] Samples for insulin, glucose and lactate were obtained at 15 minutes intervals from t=−45 to t=180 minutes.

[3] = tested on: glucose absorption from the small intestine; assay: Glucose absorption from duodenum / perfused small bowel in anesthetized rats; type: in vivo, rat
Excerpt: Because the studies involved anesthetized rather than conscious rats, they are not considered in analyzing gastric motility, e.g., rate of emptying of stomach contents into the duodenum. However, the studies indicate that absorption of glucose from the duodenum into the blood was not delayed by amylin. […] In anesthetized rats, a segment of small bowel, still connected to the animal via its blood supply, was exteriorized and cannulae inserted so that the small bowel could be perfused with glucosed solutions of controlled composition. The animals were cannulated also via an artery (for blood sampling) and via a vein (for infusion or amylin, insulin and glucose). The lumen was perfused with a tritium-labelled glucose solution. The passage of glucose from the lumen of the gut into the rat was measured by the appearance of the tritium label in the plasma. The supposition that such appearance of tritium in the plasma was indeed measuring glucose uptake from the gut was tested by administration of the glucose transport blocker, phloridzin. […] To ensure that the glucose gradient between the gut lumen and plasma remained constant, during amylin infusions, plasma glucose was “clamped” by an infusion of glucose that was varied in response to changes in plasma glucose.

gastric emptying = assay: Gastric emptying of Phenol Red methylcellulose gel after gavage (Example 5); type: in vivo, rat; details: for ED50 for suppression of gastric emptying: diabetic BB rats fasted 6 hours; for ED50 for change in gastric emptying: normal HSD rats fasted 20 hours
Method: When BB rats were confirmed as being diabetic by glycosuria on at least 2 days, they were treated with daily s.c. injections of ultralente recombinant human insulin (Humulin-U, Eli Lilly, Indianapolis). Insulin therapy was aimed at maintaining glucose but minimizing ketones in the urine, in order to avoid hypoglycemic deaths. In fact, glycosuria was present in 88% of measurements and ketonuria in 52%. The average duration of diabetes was 53±5 days, and daily insulin requirements were 4.7±0.3 units. All animals were housed at […] in a 12:12 hour light:dark cycle (experiments being performed during the light cycle) and were fed and watered ad libitum (Diet LM-485, Teklad, Madison, Wis.).
The determination of gastric emptying by the method described below has usually been performed after a fast of ˜20 hours to ensure that the stomach contained no chyme that would interfere with spectrophotomertric absorbance measurements. However, diabetic rats treated with Ultralente insulin could not be fasted for 20 hours. […] Such animals were therefore fasted for only 6 hours before measurement of gastric emptying. Non-diabetic rates were deprived of food for either 6 or 20 hours prior to experimentation. We have note that even non-diabetic BB rats have elevated glycated hemoglobin concentrations, possibly indicating subclinical insulitis. Both non-diabetic Harlan Sprague Dawley rats and non-diabetic BB rats animals were therefor use in comparisons with diabetic rats. Thus there were 5 treatment groups:
Twenty minutes after gavage, rats were anesthetized using 5% halothane, the stomach exposed and clamped at the pyloric and lower esophageal spincters using artery forceps, removed and opened into an alkaline solution which was made up to a fixed volume. Stomach content was derived from the intensity of the phenol red in the alkaline solution, measured by absorbance at a wavelength of 560 nm. In most experiments, the stomach was clear. In other experiments, particulate gastric contents were centrifuged to clear the solution for absorbance measurements. Where the diluted gastric contents remained turbid, the spectroscopic absorbance due to Phenol Red was derived as the difference between that present in alkaline vs acidified diluent. In separate experiments on 7 rats, the stomach and small intestine were both excised and opened into an alkaline solution. The quantity of phenol red that could be recovered from the upper gastrointestinal tract within 20 minutes of gavage was 89±4%. To account for a maximal dye recovery of less than 100%, stomach contents remaining after 20 min were expressed as a fraction of the gastric contents recovered from control rats sacrificed immediately after gavage in the same experiment.
Pairwise comparisons were performed using one-way analysis of variance and the Student-Newman-Keuls multiple comparisons test (Instat v2.0, GraphPad Software, San Diego) using P<0.05 as the level of significance.

plasma renin activity = details: intact rats, given subcutaneously
Excerpt: This is important because lowered blood pressure is a strong stimulus to renin release.

[4] = rats, rabbits, humans with Paget's disease; cited from earlier work
[5] = cited from earlier work
[6] = tested on: insulin-stimulated glycogen synthesis in soleus muscle; assay: Soleus muscle assay (inhibition of insulin-stimulated glycogen synthesis); type: cell-based, rat
Method: Concentrations of peptide dissolved in carrier-free buffers are determined by quantitative amino acid analysis, as described therein. The ability of compounds to act as agonists in this assay is determined by measuring EC50 values. […] Similar results were obtained with other agonist compounds listed above.

| EC50 [6] [nM] | SMILES | Cmax [1] [nM] | Plasma glucose after oral glucose load ([2]; amylin infusion 50, 100 and 300 pmol/kg/min, glucose 1 gm/kg by mouth) | Effects on plasma lactate ([2]; oral glucose load) | Absorption of glucose from the duodenum into the blood ([3]; amylin infusion 0.35 nm/kg/min, glucose 1 g/kg) | Rate of transit of labelled glucose from small bowel lumen into plasma ([3]; perfused exteriorized small bowel segment) | ED50 of inhibition of gastric emptying (gastric emptying; both normal and diabetic rats (summary)) [µg] | ED50 for suppression of gastric emptying (gastric emptying; s.c.) [nmol/gk] | ED50 for suppression of gastric emptying (gastric emptying; s.c., ±0.18 log units) [µg] | Dye recoverable from stomach 20 min after gavage (gastric emptying; diabetic rats, 10 μg s.c. (P=0.14)) | Dose restoring gastric emptying in a diabetic rat to the rate of normal rats not administered amylin (gastric emptying; estimated from fitted curves of FIG. 14) [µg] | Plasma concentrations 50% effective in inhibiting gastric emptying (gastric emptying; inferred from plasma profile after 1 μg s.c.) | ED50 for change in gastric emptying (gastric emptying; s.c.) | ED50 for change in gastric emptying (gastric emptying; s.c. 5 min before gavage, ±0.19 log units) [µg] | Dye recoverable from stomach 20 min after gavage (gastric emptying; normal HSD rats, 1 μg s.c. (P=0.22)) | Effect on gastric emptying (in words) (gastric emptying; s.c. 5 min before gavage, 0.01-100 μg) | Plasma renin activity (plasma renin activity) | Lowering of plasma calcium [4] | Plasma glucose after injection ([5]; prolonged increase from about 6) [mM] | Plasma lactate after injection ([5]; rise from about 0.5, i.v. and s.c.) [mM] |
| --- | --- | --- | --- | --- | --- | --- | --- | --- | --- | --- | --- | --- | --- | --- | --- | --- | --- | --- | --- | --- |
| – | CC(C)C[C@H](NC(=O)[C@H](CC(N)=O)NC(=O)[C@H](CC(N)=O)NC(=O)[C@H](CO)NC(=O)[C@H](CO)NC(=O)[C@H](CCCNC(=N)N)NC(=O)[C@@H](NC(=O)[C@H](CC(C)C)NC(=O)[C@H](Cc1ccccc1)NC(=O)[C@H](CC(N)=O)NC(=O)[C@H](C)NC(=O)[C@H](CC(C)C)NC(=O)[C@H](CCCNC(=N)N)NC(=O)[C@H](CCC(N)=O)NC(=O)[C@@H](NC(=O)[C@H](C)NC(=O)[C@@H]1CSSC[C@H](NC(=O)[C@@H](N)CCCCN)C(=O)N[C@@H](CC(N)=O)C(=O)N[C@@H]([C@@H](C)O)C(=O)N[C@@H](C)C(=O)N[C@@H]([C@@H](C)O)C(=O)N1)[C@@H](C)O)C(C)C)C(=O)NCC(=O)N1CCC[C@H]1C(=O)N[C@H](C(=O)N[C@@H](CC(C)C)C(=O)N1CCC[C@H]1C(=O)N1CCC[C@H]1C(=O)N[C@H](C(=O)N[C@@H](CC(N)=O)C(=O)N[C@H](C(=O)NCC(=O)N[C@@H](CO)C(=O)N[C@@H](CC(N)=O)C(=O)N[C@H](C(=O)N[C@@H](Cc1ccc(O)cc1)C(N)=O)[C@@H](C)O)C(C)C)[C@@H](C)O)C(C)C [amylin] | 0.076 | reduced both the rate of rise in plasma glucose as well as the peak plasma glucose | unremarkable | not delayed | no effect | ~1 | 2.3 | 2.2 | the same as that recoverable immediately after gavage | ~2 | less than 74 pM | 0.60 nmole amylin/kg body weight | 0.43 | the same as that recoverable immediately after gavage | dose dependent suppression of gastric emptying | markedly increases | up to 20% | ~11 | ~1.5 |
| 6.62 | CC[C@H](C)[C@H](NC(=O)[C@H](C)NC(=O)CNC(=O)[C@H](Cc1ccccc1)NC(=O)[C@H](CC(N)=O)NC(=O)[C@H](CC(N)=O)NC(=O)[C@H](CO)NC(=O)[C@H](CO)NC(=O)[C@H](Cc1c[nH]cn1)NC(=O)[C@@H](NC(=O)[C@H](CC(C)C)NC(=O)[C@H](Cc1ccccc1)NC(=O)[C@H](CC(N)=O)NC(=O)[C@H](C)NC(=O)[C@H](CC(C)C)NC(=O)[C@H](CCCNC(=N)N)NC(=O)[C@H](CCC(N)=O)NC(=O)[C@@H](NC(=O)[C@H](C)NC(=O)[C@@H]1CCCCNC(=O)C[C@H](NC(=O)[C@@H](N)CCCCN)C(=O)N[C@@H](CC(N)=O)C(=O)N[C@@H]([C@@H](C)O)C(=O)N[C@@H](C)C(=O)N[C@@H]([C@@H](C)O)C(=O)N1)[C@@H](C)O)C(C)C)C(=O)N[C@@H](CC(C)C)C(=O)N[C@@H](CO)C(=O)N[C@@H](CO)C(=O)N[C@H](C(=O)N[C@@H](CC(N)=O)C(=O)N[C@H](C(=O)NCC(=O)N[C@@H](CO)C(=O)N[C@@H](CC(N)=O)C(=O)N[C@H](C(=O)N[C@@H](Cc1ccc(O)cc1)C(N)=O)[C@@H](C)O)C(C)C)[C@@H](C)O [^2,7Cyclo-[^2Asp, ^7Lys]-h-Amylin, ^2,7Cyclo-[^2Asp,^7Lys]-h-Amylin] (H-KDNTATKATQRLANFLVHSSNNFGAILSSTNVGSNTY-NH2; lactam 2-7; N-terminus and C-terminus assumed) | – | – | – | – | – | – | – | – | – | – | – | – | – | – | – | – | – | – | – |

Reference: US7407934B2, “Methods for regulating postprandial blood glucose” (Amylin Pharmaceuticals, Inc., priority 1993, dated 2008)
